From ChEMBL document CHEMBL5303304, “EUbOPEN Chemogenomics Library - IncuCyte” (2023)

Columns and labels:
Assay type in all cases: toxicity, cell-based
[1] = test system: HEK-293T; test: Incucyte cell viability with HEK293T; settings: human, 10 µM, compound concentration 10 uM
[2] = test system: Fibroblast; test: Incucyte cell viability with human fibroblast; settings: 10 µM, compound concentration 10 uM
[3] = test system: U2OS; test: Incucyte cell viability with U2OS; settings: human, 10 µM, compound concentration 10 uM
Note: unitless GR value; below 1 slowed growth and below 0 cell loss.

| SMILES | Growth Rate ([1]; 0 h, replicate number 1) | Growth Rate ([1]; 0 h, replicate number 2) | Growth Rate ([1]; 24 h, replicate number 1) | Growth Rate ([2]; 0 h, replicate number 2) | Growth Rate ([2]; 6 h, replicate number 2) | Growth Rate ([2]; 12 h, replicate number 2) | Growth Rate ([2]; 18 h, replicate number 2) | Growth Rate ([2]; 24 h, replicate number 2) | Growth Rate ([3]; 0 h, replicate number 2) | Growth Rate ([3]; 12 h, replicate number 1) | Growth Rate ([3]; 12 h, replicate number 2) | Growth Rate ([3]; 18 h, replicate number 1) | Growth Rate ([3]; 24 h, replicate number 1) | Growth Rate ([3]; 24 h, replicate number 2) | Growth Rate ([3]; 0 h, replicate number 1) | Growth Rate ([1]; 6 h, replicate number 1) | Growth Rate ([1]; 24 h, replicate number 2) | Growth Rate ([2]; 6 h, replicate number 1) | Growth Rate ([3]; 6 h, replicate number 2) | Growth Rate ([3]; 18 h, replicate number 2) | also measured |
| --- | --- | --- | --- | --- | --- | --- | --- | --- | --- | --- | --- | --- | --- | --- | --- | --- | --- | --- | --- | --- | --- |
| NC1(c2ccc(-c3nc4c(O)ccnn4c3-c3ccccc3)cc2)CCC1 | -0.07 | -0.33 | 0.95 | -0.33 | 0.35 | 0.9 | 0.83 | 0.93 | -0.99 | 0.63 | 0.83 | 0.66 | 0.89 | 0.93 |  |  |  |  |  |  | Growth Rate ([2]; 0 h, replicate number 1): -1; Growth Rate ([2]; 18 h, replicate number 1): 0.95; Growth Rate ([3]; 6 h, replicate number 1): 0.34 |
| CCCCCCC(Sc1nc(Cl)cc(NCc2ccc(-c3ccccc3)cc2)n1)C(=O)O (configuration not stated) | 0.04 |  |  | -0.63 |  |  |  |  |  | 0.89 | 0.97 |  | 0.94 | 0.96 | 0.82 |  |  |  |  |  | Growth Rate ([2]; 24 h, replicate number 1): 0.91 |
| Nc1ncc2c(n1)-c1c([nH]c3ccc(C4CC4)cc13)CCCC2 |  |  | 0.71 |  | 0.5 | 0.75 | 0.79 |  | 0.47 | 0.85 | 0.64 | 0.93 | 1 | 0.88 | -0.99 | 0.37 | 0.85 | 0.08 | -0.85 | 0.94 | Growth Rate ([1]; 6 h, replicate number 2): 0.69; Growth Rate ([1]; 12 h, replicate number 1): 0.63; Growth Rate ([1]; 12 h, replicate number 2): 0.69; Growth Rate ([1]; 18 h, replicate number 1): 0.74; Growth Rate ([1]; 18 h, replicate number 2): 0.8; Growth Rate ([2]; 12 h, replicate number 1): 0.76 |
| COc1cc(N2CCC(N3CCN(C)CC3)CC2)ccc1Nc1ncc(Cl)c(Nc2ccccc2S(=O)(=O)C(C)C)n1 [TAE-684] |  |  | -0.72 |  | -0.99 | -0.28 | -0.21 | -0.32 | -0.18 | -0.09 | 0.29 | -0.06 | -0.15 | 0.07 |  | -0.99 | 0.17 | 0.37 | 0.84 | 0.27 | Growth Rate ([1]; 6 h, replicate number 2): -0.4; Growth Rate ([1]; 12 h, replicate number 1): -0.93; Growth Rate ([1]; 12 h, replicate number 2): -0.16; Growth Rate ([1]; 18 h, replicate number 1): -0.8; Growth Rate ([1]; 18 h, replicate number 2): 0.06; Growth Rate ([2]; 12 h, replicate number 1): -0.98; Growth Rate ([2]; 18 h, replicate number 1): 0.29; Growth Rate ([2]; 24 h, replicate number 1): -0.12; Growth Rate ([3]; 6 h, replicate number 1): -0.18 |
| Br.CO[C@H]1CC=C2CCN3CCC4=C(CC(=O)OC4)[C@]23C1 |  | 0.77 |  | 0.3 | 0.8 | 0.64 | 0.7 | 0.72 |  |  | 0.77 |  |  | 1 |  | 0.59 |  | -1 | 0.78 | 0.87 | Growth Rate ([2]; 0 h, replicate number 1): 0.93; Growth Rate ([3]; 6 h, replicate number 1): 0.39 |
| C=CC(=O)Nc1cc(Nc2nccc(-n3cc(CN(C)C)c(-c4ccccc4)n3)n2)c(OC)cc1N1CCOCC1 [LAZERTINIB] |  | 0.8 |  |  | -0.96 | 0.67 |  | 0.86 | -0.99 | 0.19 | 0.92 | 0.4 | 0.78 | 0.91 |  | 0.45 |  | 0.27 | 0.77 | 0.96 | Growth Rate ([2]; 12 h, replicate number 1): -1; Growth Rate ([3]; 6 h, replicate number 1): -0.48 |
| CN[C@@H](C)C(=O)N[C@H]1CN(C(=O)CC(C)C)CC[C@H]2CC[C@@H](C(=O)NC(c3ccccc3)c3ccccc3)N2C1=O [XEVINAPANT] | 0.08 |  | 0.92 | 0.68 | 0.35 | 0.73 | 0.78 | 0.88 | 0.1 |  |  |  |  |  |  | 0.36 |  | -0.46 |  |  | Growth Rate ([1]; 12 h, replicate number 1): 0.86; Growth Rate ([1]; 18 h, replicate number 1): 0.71; Growth Rate ([1]; 18 h, replicate number 2): 0.97; Growth Rate ([2]; 12 h, replicate number 1): 0.68; Growth Rate ([2]; 24 h, replicate number 1): 0.9 |
| Cc1cc(OC2CCS(=O)(=O)CC2)cc(C)c1-c1cccc(COc2ccc(CCC(=O)O)c(F)c2)c1 |  | 0.14 | 0.94 | 0 |  | 0.88 |  |  |  | 0.88 | 0.91 | 0.96 | 0.92 | 0.87 |  | 0.99 | 0.96 |  | 0.78 | 0.99 | Growth Rate ([1]; 18 h, replicate number 1): 0.99; Growth Rate ([2]; 0 h, replicate number 1): -0.63; Growth Rate ([2]; 12 h, replicate number 1): 0.64; Growth Rate ([2]; 18 h, replicate number 1): 0.84 |
| CCn1c(-c2nonc2N)nc2cncc(C(=O)N3CC[C@H](N)C3)c21.Cl | -0.71 | -0.15 |  | -0.88 |  |  |  |  |  |  |  |  |  | 0.79 | -1 |  |  |  |  | 0.88 | Growth Rate ([2]; 0 h, replicate number 1): -1 |
| CCS(=O)(=O)c1ccc(OC)c(Nc2ncc(-c3cccc(F)c3)o2)c1 [GW621970X] |  |  | 0.43 | -0.51 | 0.01 | 0.24 | 0.7 | 0.99 |  |  | 0.84 | 0.79 | 0.94 | 0.77 |  | -0.48 | 0.8 | -0.04 | 0.74 | 0.86 | Growth Rate ([1]; 6 h, replicate number 2): -0.44; Growth Rate ([1]; 12 h, replicate number 1): -0.12; Growth Rate ([1]; 12 h, replicate number 2): 0.2; Growth Rate ([1]; 18 h, replicate number 1): 0.22; Growth Rate ([1]; 18 h, replicate number 2): 0.63; Growth Rate ([2]; 12 h, replicate number 1): 0.4; Growth Rate ([2]; 18 h, replicate number 1): 0.72; Growth Rate ([2]; 24 h, replicate number 1): 0.73 |
| CN(C)C/C=C/C(=O)Nc1cccc(C(=O)Nc2ccc(Nc3nccc(-c4cccnc4)n3)cc2)c1 |  | 0.56 | -0.55 | 0.35 | 0.47 | -0.34 | -0.31 | -0.26 |  | 0.85 | 0.74 | 0.46 | 0.27 | 0.13 | -0.34 | -0.88 | -0.37 | -1 |  | 0.42 | Growth Rate ([1]; 6 h, replicate number 2): -0.56; Growth Rate ([1]; 12 h, replicate number 1): -0.9; Growth Rate ([1]; 12 h, replicate number 2): -0.52; Growth Rate ([1]; 18 h, replicate number 1): -0.74; Growth Rate ([1]; 18 h, replicate number 2): -0.44 |
| Nc1ccc(-c2cnc(N)c(-c3ccc(Cl)cc3)c2)cn1 | -0.26 | -0.3 |  | -0.5 |  |  |  |  | -0.83 |  |  |  |  |  | -0.24 |  | 0.78 | -1 |  |  | Growth Rate ([1]; 18 h, replicate number 2): 0.92; Growth Rate ([2]; 0 h, replicate number 1): 0.71 |
| Cl.c1ccc2c(c1)CCC[C@H]2Nc1nc2ccccc2[nH]1 | 0.86 | 0.46 |  | 0.4 |  | 0.56 | 0.87 |  |  |  |  | 0.9 | 0.98 |  | 0.01 | 0.77 |  |  | 0.97 | 0.95 | Growth Rate ([2]; 0 h, replicate number 1): 0.94; Growth Rate ([2]; 18 h, replicate number 1): 0.44; Growth Rate ([2]; 24 h, replicate number 1): 0.48 |
| CCNC1=N[C@@H]2[C@@H](O)[C@H](O)[C@@H](CO)O[C@@H]2S1 | -0.01 | -0.15 | 0.86 |  | 0.18 | 0.76 | 0.8 | 0.99 | 0.47 | 0.86 | 0.79 | 0.91 | 0.95 | 0.74 | -0.37 |  | 0.89 |  | 0.45 | 0.81 | Growth Rate ([1]; 6 h, replicate number 2): 0.53; Growth Rate ([1]; 12 h, replicate number 2): 0.93; Growth Rate ([1]; 18 h, replicate number 1): 0.78; Growth Rate ([2]; 12 h, replicate number 1): 0.91; Growth Rate ([2]; 18 h, replicate number 1): 0.83; Growth Rate ([2]; 24 h, replicate number 1): 0.92; Growth Rate ([3]; 6 h, replicate number 1): 0.53 |
| COc1cnccc1Nc1nc(-c2nn(Cc3c(F)cc(OCCO)cc3F)c3ccccc23)ncc1OC | -1 | -0.96 |  |  | 0.31 | 0.04 | -0.07 | -0.03 | -0.09 | -0.2 | 0.06 | -0.22 | -0.17 | 0.09 | -1 |  | 0.21 | -0.29 | -0.04 | 0.21 | Growth Rate ([1]; 6 h, replicate number 2): -0.05; Growth Rate ([1]; 12 h, replicate number 2): -0.01; Growth Rate ([1]; 18 h, replicate number 2): 0.13; Growth Rate ([2]; 12 h, replicate number 1): -0.23; Growth Rate ([2]; 18 h, replicate number 1): -0.14; Growth Rate ([2]; 24 h, replicate number 1): -0.14; Growth Rate ([3]; 6 h, replicate number 1): -0.05 |
